# Measured values taken from PubChem BioAssay AID743125 (Broad Institute, 2013).
# Values joined by “and” are separate entries in the source; they are usually repeats but may differ in a detail not shown here. Identical values can stand only once. Active and inactive are the calls of the source.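 How the source made its calls: active means fitted AC50 no higher than twice the top valid dose tested for that sample; inconclusive means flat curve between -30 and -70% activity, or poor fit; inactive means the rest.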
# Target: PglD UDP-4-amino-sugar N-acetyltransferase (Campylobacter jejuni)
# Assay: inhibition of C. jejuni PglD N-acetyltransferase – biochemical, DTNB absorbance, dry powder samples, set 5, dose response (AID 743125)
# Details: purified PglD, DTNB absorbance 412 nm, CoA release
row,AC50,Structure (SMILES)
1,> 39 µM (inactive),Cc1c(C(=O)O)sc2nc(/C=C/c3cccc(OC(F)(F)F)c3)[nH]c(=O)c12
2,4.69 µM,Cc1c(C(=O)O)sc2nc(/C=C/c3cccc(=O)[nH]3)[nH]c(=O)c12
3,7 µM,Cc1c(C(=O)O)sc2nc(/C=C/c3ccc4[nH]ccc4n3)[nH]c(=O)c12
4,> 39 µM (inactive),Cc1c(C(=O)O)sc2nc(/C=C/c3cccc([N+](=O)[O-])c3)[nH]c(=O)c12
5,11.5 µM,COc1cccc(/C=C/c2nc3sc(C(=O)O)c(C)c3c(=O)[nH]2)c1
6,16.9 µM,Cc1c(C(=O)O)sc2nc(/C=C/c3cccc(N)c3)[nH]c(=O)c12
7,27.6 µM and 3.61 µM,Cc1c(C(=O)O)sc2nc(/C=C/c3cccc(O)c3)[nH]c(=O)c12
8,> 20 µM (inactive),Cc1c(C(=O)O)sc2nc(/C=C/c3cccc(N4CCOCC4)n3)[nH]c(=O)c12
9,7.09 µM,Cc1c(C(=O)O)sc2nc(/C=C/c3ccccn3)[nH]c(=O)c12
10,24.9 µM,Cc1c(C(=O)O)sc2nc(/C=C/c3ccccc3O)[nH]c(=O)c12

# Same assay, conditions: purified PglD, DTNB absorbance 412 nm, CoA release; at 1 µM (top of the series)
row,"activity change, negative = inhibition",Structure (SMILES)
1,inactive,Cc1c(C(=O)O)sc2nc(/C=C/c3ccc(O)cn3)[nH]c(=O)c12

# Same assay, conditions: purified PglD, DTNB absorbance 412 nm, CoA release; at 10 µM (top of the series)
row,"activity change, negative = inhibition",Structure (SMILES)
1,inactive,Cc1c(C(=O)O)sc2nc(/C=C/c3cccnc3N)[nH]c(=O)c12

# Same assay, conditions: purified PglD, DTNB absorbance 412 nm, CoA release; at 38 µM (top of the series)
row,"activity change, negative = inhibition",Structure (SMILES)
1,inactive,Cc1c(C(=O)O)sc2nc(/C=C/c3cccc(N4CCNCC4)c3)[nH]c(=O)c12
